Laboratory results reported in patent US20220211914A1, “HYALURONIC ACID HYDROGELS WITH PROLONGED ANTIMICROBIAL ACTIVITY” (INSTITUT NATIONAL DE LA SANTE ET DE LA RECHERCHE MEDICALE …, priority 2019, published 2022).
Entries after “also recorded” stand apart in the source; their conditions may differ.

Tests used:
[1] = system: bacteria; assay: Repetitive culture of bacteria with PAR-loaded HA hydrogel discs (fresh bacteria every 24 h); assay type: cell-based; details: for duration of antibacterial effect in repetitive culture, additional test: additional test (FIG. 15); for lowest loading concentration showing antibacterial effect: loaded HA hydrogels
Experimental: Repetitive culture: after 24 h of bacterial culture, the samples were rinsed and seeded with fresh bacteria.
After 24 h of bacterial culture, the samples were rinsed and seeded with fresh bacteria.
Every 24 h of bacterial culture, the samples were seeded with fresh bacteria.

[2] = system: Balb/3T3 cells; assay: Direct in vitro cytotoxicity test (ISO 10993) with MTT test; details: 24 h
Experimental: FIG. 14: Cell viability evaluation by MTT test. Balb/3T3 cells were seeded in 24-well plate and put in contact with HA hydrogel discs loaded or not with PARs for 24 h. HA discs correspond to BDDE-crosslinked HA hydrogel discs without PAR, and HA+PARs correspond to HA hydrogels loaded with different PAR concentrations (mg/mL). (A) Cell images after 24 h of direct in vitro cytotoxicity test. (B) Cell viability measured by MTT test. Dashed line corresponds to 70% viability (cytotoxicity limit).
Direct in vitro cytotoxicity test consists in putting material in contact with the cells for 24 h and performing MTT test to evaluate cell viability. According to ISO 10993, the tested material should cover approximately 1/10 of cell layer surface, which corresponds to ˜5 mm hydrogel discs per well of a 24-well plate.
After 24 h at 37° C., hydrogel discs were removed and MTT test was performed in order to measure cell metabolic activity, which often serves to estimate cell viability. […] The number of viable cells correlates to the colour intensity determined by photometric measurements after dissolving the formazan in alcohol (from ISO 10993).
So the discs, loaded or not with PAR, were sterilized and placed onto ˜80% confluent layer of Balb/3T3 cells. For MTT assay, the cells were incubated for 2 h in 0.2 mg/mL MTT-containing cell culture medium. The medium was then removed and formazan was dissolved in DMSO. Absorbance of resulting solutions was measured at 570 nm using spectrophotometer and images were taken around and under the discs to evaluate cell morphology.

[3] = system: S. aureus; assay: Antibacterial activity of PAR-loaded HA films, S. aureus culture, OD at 620 nm after 24 h; assay type: cell-based; details: loaded into HA hydrogels at 1 mg/mL; preliminary experiments
Experimental: FIG. 3: Bacterial growth on PAR pre-loaded and post-loaded HA films. Bacterial growth was evaluated after 24 h by optical density (OD) measurement at 620 nm. PARO corresponds to HA film without PAR. HA 2.5%+BDDE 20% films were added with 1 mg/mL PAR after cross-linking (=post-loaded films).
They assessed post-loading of PAR (adding 1 mg/mL solution of PAR onto cross-linked HA films). […] We also followed PAR release after 24 h from post-loaded films.
After 24 h, OD at 620 nm was measured and bacterial viability on the surfaces was assessed using BacLight Redox Sensor CTC Vitality kit (Molecular Probes) as a fluorescent marker.

[4] = Loading of PAR-FITC into HA hydrogel discs (CLSM images, fluorescence profiles); assay type: physicochemical; details: for distribution in hydrogel discs (fluorescent profiles): discs loaded with 0.5 mg/mL PAR-FITC
Experimental: FIG. 6: Loading of PAR30-FITC into HA hydrogel discs at different concentrations for 3 h and 24 h. (A) CLSM images (B) Quantification of PAR concentration in the center of the discs.
FIG. 7: Loading of PARs-FITC into HA hydrogel discs. CSLM images of HA hydrogel discs loaded with 0.5 mg/mL of three PARs labelled with FITC (on the left) and fluorescence profiles of the resulting discs (on the right).
To load PAR into the hydrogels, the discs were immersed in PAR solution and incubated at room temperature. For 4 mm discs in 24-well plate, 0.5 mL of PAR solution was used. Then the discs were rinsed with Tris/NaCl buffer two times: one short and one long (at least 1 hour) rinsing.
To visualize PAR loading and diffusion inside the hydrogels, they again used fluorescently-labelled PARs (PAR10-FITC, PAR30-FITC, PAR200-FITC).

[5] = PAR-loaded hydrogel stability in Tris/NaCl buffer; assay type: physicochemical; details: 48 h at room temperature or at 37° C.
[6] = PAR-FITC release from HA hydrogel discs in NaCl 1 M (confocal microscopy, spectrofluorimetry); details: for release according to the confocal microscopy images: 72 h at 37° C. in NaCl 1M, discs loaded with 0.5 mg/mL PAR-FITC; for released PAR (from percentage remaining, image processing): 72 h in NaCl 1 M, 100% = fluorescence intensity before release; for PAR concentration contained in the discs: disc volume approximately 30 μL, loaded in 0.5 mg·mL^−1
Experimental: FIGS. 20-24: Release of PARs in NaCl and in culture media. HA discs were incubated with 0.5 mg·mL^−1 of three different FITC-conjugated PAR for 24 h. The discs were rinsed, then incubated for 72 h in NaCl 1 M, MH or DMEM.
More specifically, total amounts of PAR contained in the hydrogels were estimated by incubation of hydrogels loaded with fluorescently labelled PAR in concentrated NaCl to promote PAR release. […] The percentage of PAR remaining in the hydrogel discs after 72 h of incubation was measured with image processing; 100% corresponds to fluorescence intensity before release. […] Then, amounts of PAR-FITC released were quantified by measuring fluorescence intensity of the supernatant by spectrofluorimetry and referring to a calibration curve.

[7] = PAR-FITC release from HA hydrogels in MH and DMEM culture media; details: for release in DMEM/FBS relative to MH: 24 h of incubation at 37° C.; for release rate in MH: followed during 72 hours at 37° C. in MH
Experimental: Using FITC-labeled PARs of 10 units, 30 units and 200, the inventors evaluated their release at 37° C. from HA hydrogels in two different media.
They performed discs imaging after 24 h of incubation at 37° C. in MH (Mueller Hinton broth, bacterial culture medium) and in DMEM (Dulbecco's modified Eagle's medium+10% FBS+antibiotics, cell culture medium).
More specifically, PAR release from the hydrogels was followed during 72 hours in microbiological growth medium (MH) or cell culture medium (DMEM). PAR-FITC loaded hydrogels were placed into these media and incubated at 37° C., and PAR release was observed by confocal microscopy (FIG. 22).

[8] = PAR mobility inside HA hydrogels by FRAP; assay type: physicochemical; details: discs loaded with 0.5 mg/mL FITC-conjugated PAR for 24 h
Experimental: FIG. 8: PAR mobility inside HA hydrogels. HA discs were loaded with 0.5 mg/mL of three different FITC-conjugated PARs for 24 h and rinsed. Then, FRAP experiments were conducted. (A) Comparison of the fluorescence recovery of three PARs. (B) Determination of the diffusion coefficients D and percentage of mobile molecules p for three PARs.
Next, the inventors studied PARs mobility inside the hydrogels (FIG. 8) using FRAP (fluorescence recovery after photobleaching) technique. […] Quantitative parameters such as diffusion coefficient were also determined (FIG. 8B).

[9] = 0.1 mg/mL-loaded hydrogels, fresh bacteria added every day
[10] = HA hydrogel discs loaded at 1 mg/mL
[11] = hydrogels loaded with 0.05 mg/mL

Substance	duration of antibacterial effect in repetitive culture, additional test ([1]; 0.1 mg/mL-loaded hydrogels) [days]	duration of antibacterial effect in repetitive culture [1, 9] [days]	duration of antibacterial effect in repetitive culture ([1]; HA hydrogel discs loaded at 0.5 mg/mL) [days]	duration of antibacterial effect in repetitive culture [1, 10] [days]	comparison of prolonged antibacterial effect among PAR lengths ([1]; PAR10, PAR30, PAR200 loaded HA hydrogels, repetitive culture)	lowest loading concentration showing antibacterial effect [1] [mg/mL]	cell viability by MTT test ([2]; 0.1 mg/mL-loaded hydrogels)	cell viability by MTT test [2, 11]	antibacterial activity [3]	diffusion into the disc center, 24 h vs. 3 h loading ([4]; PAR30-FITC loading for 3 h vs. 24 h)	distribution in hydrogel discs (fluorescent profiles) [4]	PAR-FITC release in Tris/NaCl buffer [5]	release according to the confocal microscopy images [6]	released PAR (from percentage remaining, image processing) [6]	PAR concentration contained in the discs [6]	release in DMEM/FBS relative to MH [7]	release rate in MH [7]	mobility inside the hydrogels (qualitative, FRAP) [8]
poly-L-arginine [PAR30]	5	4	8	8	most prolonged antibacterial effect; also recorded: most efficient	0.05	good	good viability	antibacterial activity	diffused more into the discs center	more homogeneous distribution	no PAR-FITC release	~80%	~78%	~6.7 mg/mL	higher than in MH	released more gradually	–
poly-L-arginine [PAR200]	–	–	–	7	–	–	–	–	antibacterial activity	–	–	no PAR-FITC release	~80%	~78%	~3.9 mg/mL	higher than in MH	released more gradually	least mobile
poly-L-arginine [PAR10]	3	2	–	8	–	0.05	good	good viability	antibacterial activity	–	more homogeneous distribution	no PAR-FITC release	almost complete	about 97%	about 7.3 mg·mL^−1	–	faster	most mobile
